The source of these data is article PMC8308845, “Discovery of Novel Chemical Series of OXA-48 β-Lactamase Inhibitors by High-Throughput Screening” (Pharmaceuticals, 2021).

T1 sequence (Q6XEC0 23-265, looked up): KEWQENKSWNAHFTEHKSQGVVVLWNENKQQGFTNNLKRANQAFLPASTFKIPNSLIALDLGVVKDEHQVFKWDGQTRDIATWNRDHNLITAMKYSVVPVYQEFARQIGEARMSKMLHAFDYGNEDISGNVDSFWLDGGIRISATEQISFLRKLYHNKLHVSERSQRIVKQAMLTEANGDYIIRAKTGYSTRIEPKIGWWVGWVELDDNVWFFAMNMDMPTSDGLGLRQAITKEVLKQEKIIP

The first assay addresses T1, OXA-48 (Klebsiella pneumoniae, UniProt Q6XEC0).
T1 construct: made in house; host or cells: E. coli BL21(DE3), T7 expression system
Description: OXA-48 primary enzymatic assay (nitrocefin substrate, fluorescence-quenching readout). In kind it is biochemical. The following applies: AC50 ratio; parent ID3 for ID6, parent ID2 for 3 and 5–9. Here is the method: After an initial pilot run (three plates, consisting of 960 randomly selected compounds), the primary screening of the subset plates was carried out at 20 µM in single point against OXA-48 enzyme in a nitrocefin-based assay, using the fluorescence-quenching readout. This enzymatic assay employs the cephalosporin nitrocefin as OXA-48 substrate and takes advantage of the fluorescent properties of white microtiter plates. Chromogenic nitrocefin is hydrolyzed by β-lactamases to yield a product with increased absorbance properties (~495 nm) that quenches the plate fluorescence by absorbing the plate’s emission light. In this assay, test compounds that inhibit OXA-48 catalytic activity are predicted to reduce nitrocefin quenching of plate fluorescence, resulting in a quantitative increase in well fluorescence (ON-system for inhibitors). The nitrocefin-based epi-absorbance readout system has been successfully applied in HTS campaigns on other β-lactamases, such as IMP-1 and VIM-2, with the identification of inhibitors belonging to novel scaffolds displaying a favourable degree of selectivity and sub-micromolar potency.
The screening results were expressed as activity percent. […] Overall, the primary assay robustness was good, with Robust Z Prime factor (RZ′) equal to 0.86.
In total, 256 active molecules (125 from the subset and 131 from the full set) were then assayed in dose–response at eight concentrations from 60 to 0.002 µM with interplate triplicate data points.
The blaOXA gene coding for the OXA-48 ß-lactamase, originally cloned from the K. pneumonia 11978 (a clinical isolate from Istanbul Faculty Hospital, Istanbul, Turkey) was overexpressed via a T7 expression system in E. coli BL21(DE3), and its product, native protein, (final yield of 30 mg/L of culture) was subjected to several purification steps, including ion-exchange chromatography with Q-Sepharose and 20 mM Tris-HCl buffer (pH 9.0), followed by chromatography with S-Sepharose columns and 100 mM sodium phosphate buffer (pH 5.8). Elution of the beta-lactamase was performed with a K2SO4 gradient. Peaks of beta-lactamase activity were concentrated and were dialyzed with 100 mM phosphate buffer (pH 7.0). The OXA-48 enzyme was purified to homogeneity (with a degree of purity around 95.4%.)-as measured by 12% SDS PAGE [23]. OXA-48 protein stock solution (2 mg/mL) was finally prepared in 20 mM Hepes (pH 8,1). OXA-48 β-lactamase specific activity was measured by following the hydrolysis of 100 μM nitrocefin (ε: 17,000 M-1 cm^−1 at 482 nm; Δε: 15,000 M-1 cm^−1 at 482 nm) and corresponding to 60.45 μmoles min^−1 mg^−1 of OXA-48 (kcat = 28.85 s^−1) enzyme. A MW of 28,147 g/mol, calculated from the enzyme sequence was confirmed by MALDI-TOF analysis with a Mass error of ± 2.8 Da.
The primary assay was developed to monitor the enzymatic activity of OXA-48 taking advantage of the spectroscopic properties of white microtiter plates (Optiplate-384, PerkinElmer, #6007290), as indicated by Zuck et al.. Nitrocefin is chromogenic substrate for beta-lactamases with λmax = 395 nm (yellow). Upon hydrolysis by OXA-48, nitrocefin yields (2R)-2-[(R)-carboxy[2-(thiophen-2-yl)acetamido]methyl]-5-[(E)-2-(2,4-dinitrophenyl)ethenyl]-3,6-dihydro-2H-1,3-thiazine-4-carboxylic acid, with increased absorbance properties at λmax = 495 nm. Spectroscopic features of the reaction product are exploited to quench the plate intrinsic fluorescence by absorbing the plate’s emission light, which can be monitored by exciting the reaction at 485 nm and recording the emission at 520 nm. Therefore, the primary assay for HTS was an ON-assay, in which compounds targeting OXA-48 were predicted to elicit an increase of the fluorescence signal.
The primary assay was performed in reaction buffer (20 mM Hepes pH 8.0, 12.5 mM NaCl, 0.005% BSA, 0.0005% Brij-35) in the presence of 0.0014 ng/µL OXA-48 and 25 µM nitrocefin in a final volume of 20 µL/well in 384 MTP format. […]
With `CCc1ccc(-c2n[nH]c3nc(-c4cccc(C(=O)O)c4)cc(C(=O)O)c23)cc1` [Compound 3, 6-(3-Carboxyphenyl)-3-(4-ethylphenyl)-1H-pyrazolo[3,4-b]pyridine-4-carboxylic acid], the “fold loss in potency/activity versus parent compound” value is on record as 17 fold.
Still for that read-out and setting: the same measure for `O=C(O)c1ccc(/C=N/n2cnnc2S)cc1` [ID6]: “more than 20 fold”.

The assay is the same for the next values; noted with them: dose–response, median of triplicate wells; 15 min preincubation, 25 µM nitrocefin.
For `CCc1ccc(-c2n[nH]c3nc(-c4ccc(C(=O)O)c(F)c4)cc(C(=O)O)c23)cc1` [Compound 1, 6-(4-Carboxy-3-fluorophenyl)-3-(4-ethylphenyl)-1H-pyrazolo[3,4-b]pyridine-4-carboxylic acid], the AC50 was found to be 0.92 µM.
Still for that read-out and setting: in the case of `CCc1ccc(-c2n[nH]c3nc(-c4ccc(C(=O)O)cc4F)cc(C(=O)O)c23)cc1` [Compound 2, 6-(4-Carboxy-2-fluorophenyl)-3-(4-ethylphenyl)-1H-pyrazolo[3,4-b]pyridine-4-carboxylic acid] it was 1.48 µM.
`CCc1ccc(-c2n[nH]c3nc(-c4cccc(C(=O)O)c4)cc(C(=O)O)c23)cc1` [Compound 3, 6-(3-Carboxyphenyl)-3-(4-ethylphenyl)-1H-pyrazolo[3,4-b]pyridine-4-carboxylic acid] returned an AC50 of 16.8 µM.
On the same count and under the same terms, the same measure for `CCc1ccc(-c2n[nH]c3nc(-c4ccc(CC(=O)O)cc4)cc(C(=O)O)c23)cc1` [Compound 4, 6-(4-(Carboxymethyl)phenyl)-3-(4-ethylphenyl)-1H-pyrazolo[3,4-b]pyridine-4-carboxylic acid]: 4.78 µM; for `CCc1ccc(-c2n[nH]c3nc(-c4cc(F)c(O)cc4F)cc(C(=O)O)c23)cc1` [Compound 5, 6-(2,5-Difluoro-4-hydroxyphenyl)-3-(4-ethylphenyl)-1H-pyrazolo[3,4-b]pyridine-4-carboxylic acid]: 16.2 µM.
Same read-out and setting: in the case of `CCc1ccc(-c2n[nH]c3nc(-c4cc(F)c(O)c(F)c4)cc(C(=O)O)c23)cc1` [Compound 6, 6-(3,5-Difluoro-4-hydroxyphenyl)-3-(4-ethylphenyl)-1H-pyrazolo[3,4-b]pyridine-4-carboxylic acid] it was 24.4 µM; in that of `CCc1ccc(-c2n[nH]c3nc(-c4ccc(O)c(F)c4F)cc(C(=O)O)c23)cc1` [Compound 7, 6-(2,3-Difluoro-4-hydroxyphenyl)-3-(4-ethylphenyl)-1H-pyrazolo[3,4-b]pyridine-4-carboxylic acid], 51.2 µM; in that of `CCc1ccc(-c2n[nH]c3nc(-c4cc(Cl)c(O)c(OC)c4)cc(C(=O)O)c23)cc1` [Compound 8, 6-(3-Chloro-4-hydroxy-5-methoxyphenyl)-3-(4-ethylphenyl)-1H-pyrazolo[3,4-b]pyridine-4-carboxylic acid], 13.7 µM.
The same measure, in the same setting: in the case of `CCc1ccc(-c2n[nH]c3nc(-c4cc(F)c(O)c(Cl)c4)cc(C(=O)O)c23)cc1` [Compound 9, 6-(3-Chloro-5-fluoro-4-hydroxyphenyl)-3-(4-ethylphenyl)-1H-pyrazolo[3,4-b]pyridine-4-carboxylic acid] it was 63.8 µM; in that of `CCc1ccc(-c2n[nH]c3nc(-c4ccc(C(=O)O)cc4)ccc23)cc1` [Compound 10, 4-(3-(4-Ethylphenyl)-1H-pyrazolo[3,4-b]pyridin-6-yl)benzoic acid], greater than 100 µM.
`CCc1ccc(-c2n[nH]c3nc(-c4ccc(C(=O)O)cc4)cc(C(F)(F)F)c23)cc1` [Compound 11, 4-(3-(4-Ethylphenyl)-4-(trifluoromethyl)-1H-pyrazolo[3,4-b]pyridin-6-yl)benzoic acid]: the AC50 is greater than 100 µM.
Take `CCc1ccc(-c2n[nH]c3nc(-c4ccc(C(=O)O)cc4)cc(CO)c23)cc1` [Compound 12, 4-(3-(4-Ethylphenyl)-4-(hydroxymethyl)-1H-pyrazolo[3,4-b]pyridin-6-yl)benzoic acid]: the AC50 was greater than 100 µM and the “OXA-48 AC50” value is “complete loss of activity”.
On to `CCc1ccc(-c2n[nH]c3nc(-c4ccc(C(=O)O)cc4)cc(CC)c23)cc1` [Compound 13, 4-(4-Ethyl-3-(4-ethylphenyl)-1H-pyrazolo[3,4-b]pyridin-6-yl)benzoic acid], for which the AC50 was greater than 100 µM.
Consider `CCc1ccc(-c2n[nH]c3nc(-c4ccc(C(=O)O)cc4)cc(C(N)=O)c23)cc1` [Compound 14, 4-(4-Carbamoyl-3-(4-ethylphenyl)-1H-pyrazolo[3,4-b]pyridin-6-yl)benzoic acid], for which the “OXA-48 AC50” value was “complete loss of activity”.
In turn, `O=C(O)c1ccc(/C=N/n2c(S)nnc2-c2ccc(Cl)cc2Cl)cc1` [ID4] came in with an AC50 of 3.17 µM.
On the same count and under the same terms, in the case of `O=C(O)c1ccc(/C=N/n2c(S)nnc2C2CCCCC2)cc1` [ID5] it was 2.88 µM.
On the same count and under the same terms, the same measure for `O=C(O)c1ccc(/C=N/n2cnnc2S)cc1` [ID6]: 15.7 µM.
The same measure, in the same setting: the same measure for `COC(=O)c1ccc(/C=N/n2c(S)nnc2-c2ccccc2)cc1` [ID9]: 35.6 µM; for `N#Cc1ccc(/C=N/n2c(S)nnc2-c2ccccc2)cc1` [ID11]: 12 µM; for `Sc1nnc(-c2ccccc2)n1/N=C/c1cccs1` [ID23]: 24.8 µM.
As to `CCc1ccc(-c2n[nH]c3nc(-c4ccccc4)cc(C(=O)O)c23)cc1` [ID30], the AC50 amounted to 249 µM and the “OXA-48 AC50” value is “inactive”.
Consider `CCc1ccc(-c2n[nH]c3nc(-c4ccccc4O)cc(C(=O)O)c23)cc1` [ID31], for which the “OXA-48 AC50” value was “inactive”.
